Data from publication PMC5460133 (Scientific Reports, 2017).

Experiments:
[1] = test system: T1, Sb-PDE; type: biochemical, Sphingobium sp. TCM1
T1 construct: native enzyme purified from Sphingobium sp; TCM1; signal peptide removed; mature 413 residues, N-terminus EFVTQSDQRPP (residues 29-39 of 441); homodimer, 116 kDa; zinc-containing; PHP superfamily

[2] = test system: T1, Sb-PDE; type: biochemical, Sphingobium sp. TCM1; remark: listed apart in the source

Compound	Km [1] [mM]	K i [2] [mM]
O=[N+]([O-])c1ccc(OP(=O)(O)Oc2ccc([N+](=O)[O-])cc2)cc1 [BpNPP]	6.1 ± 1.2	12.5 ± 3.1
O=[N+]([O-])c1ccc(OP(=O)(O)O)cc1 [pNPP]	1.5 ± 0.2	
